Each compound was assayed on Cell Necrosis (assay: Cell necrosis assay / cell viability assay (necrosis inhibitor activity)). Conditions: necrosis inhibitor activity; compounds outside 14-191; read-out: EC50.
Type: cell-based

SMILES | EC50 [nM]
O=C(N1CC(=Cc2cc3[nH]nc(F)c3cc2F)C1)N1N=CCC1c1ccccc1 (centres unmarked) [Compound 296, (3-((3,5-difluoro-1H-indazol-6-yl)methylene)azetidin-1-yl)(5-phenyl-4,5-dihydro-1H-pyrazol-1-yl)methanone] | 1 to 1000
N#Cc1cc(F)cc([C@@H]2CC=NN2C(=O)N2CC(=Cc3cc4[nH]nc(F)c4cc3F)C2)c1 [Compound 297, (S)-3-(1-(3-((3,5-difluoro-1H-indazol-6-yl)methylene)azetidine-1-carbonyl)-4,5-dihydro-1H-pyrazol-5-yl)-5-fluorobenzonitrile] | 1 to 1000
Nc1ccn(CC2CN(C(=O)N3N=CC[C@H]3c3cc(F)cc(F)c3)C2)c1 [Compound 298, (S)-(3-((3-amino-H-pyrrol-1-yl)methyl)azetidin-1-yl)(5-(3,5-difluorophenyl)-4,5-dihydro-1H-pyrazol-1-yl)methanone] | 1 to 1000
Nc1cc(F)c(F)c(C=C2CN(C(=O)N3N=CC[C@H]3c3cc(F)cc(F)c3)C2)c1 [Compound 299, (S)-(3-(5-amino-2,3-difluorobenzylidene)azetidin-1-yl)(5-(3,5-difluorophenyl)-4,5-dihydro-1H-pyrazol-1-yl)methanone] | 1 to 1000
O=C(N1CC(=Cc2cc3[nH]nc(F)c3cc2F)C1)N1N=CC[C@H]1c1cc(F)cc(F)c1 [Compound 301, (S)-(3-((3,5-difluoro-1H-indazol-6-yl)methylene)azetidin-1-yl)(5-(3,5-difluorophenyl)-4,5-dihydro-1H-pyrazol-1-yl)methanone] | 1 to 1000
O=C(N1CC(=Cc2cc3[nH]nc(F)c3cc2F)C1)N1N=CCC1c1ccccc1 (centres unmarked) [Compound 302, (3-((3,5-difluoro-1H-indazol-6-yl)methylene)azetidin-1-yl)(5-phenyl-4,5-dihydro-1H-pyrazol-1-yl)methanone] | 1 to 1000
CNc1nc(N2CCN(C(=O)N3N=CC[C@H]3c3cc(F)cc(F)c3)CC2)ncc1F [Compound 303, (S)-(5-(3,5-difluorophenyl)-4,5-dihydro-1H-pyrazol-1-yl)(4-(5-fluoro-4-(methylamino)pyrimidin-2-yl)piperazin-1-yl)methanone] | 1 to 1000
O=C(N1CC(=Cc2c(F)cc(F)cc2F)C1)N1N=CCC1c1cc(F)cc(F)c1 (centres unmarked) [Compound 304, (5-(3,5-difluorophenyl)-4,5-dihydro-1H-pyrazol-1-yl)(3-(2,4,6-trifluorobenzylidene)azetidin-1-yl)methanone] | 1 to 1000
O=C(N1CC(=Cc2ccc(F)nc2)C1)N1N=CCC1c1cc(F)cc(F)c1 (centres unmarked) [Compound 305, (5-(3,5-difluorophenyl)-4,5-dihydro-1H-pyrazol-1-yl)(3-((6-fluoropyridin-3-yl)methylene)azetidin-1-yl)methanone] | 1 to 1000
O=C(N1CC(=Cc2ccc(F)cc2)C1)N1N=CCC1c1cc(F)cc(F)c1 (centres unmarked) [Compound 306, (5-(3,5-difluorophenyl)-4,5-dihydro-1H-pyrazol-1-yl)(3-(4-fluorobenzylidene)azetidin-1-yl)methanone] | 1 to 1000
O=C(N1CC(=Cc2ccc(F)nc2)C1)N1N=CCC1c1cncc(F)c1 (centres unmarked) [Compound 307, (5(5-fluoropyridin-3-yl)-4,5-dihydro-H-pyrazol-1-yl)(3-((6-fluoropyridin-3-yl)methylene)azetidin-1-yl)methanone] | 1 to 1000
O=C(N1CC(=Cc2ccc(F)cc2F)C1)N1N=CCC1c1cncc(F)c1 (centres unmarked) [Compound 308, (3-(2,4-difluorobenzylidene)azetidin-1-yl)(5-(5-fluoropyridin-3-yl)-4,5-dihydro-1H-pyrazol-1-yl)methanone] | 1 to 1000
O=C(N1CC(=Cc2ccc(F)cc2)C1)N1N=CCC1c1cncc(F)c1 (centres unmarked) [Compound 309, (3-(4-fluorobenzylidene)azetidin-1-yl)(5-(5-fluoropyridin-3-yl)-4,5-dihydro-1H-pyrazol-1-yl)methanone] | 1 to 1000
O=C(N1CC(=Cc2ccc3cn[nH]c3c2)C1)N1N=CC[C@H]1c1cc(F)cc(F)c1 [Compound 310, (S)-(3-((1H-indazol-6-yl)methylene)azetidin-1-yl)(5-(3,5-difluorophenyl)-4,5-dihydro-1H-pyrazol-1-yl)methanone] | 1 to 1000
O=C(N1CC(=Cc2ccc3oc(=O)[nH]c3c2)C1)N1N=CC[C@H]1c1cc(F)cc(F)c1 [Compound 311, (S)-5-((1(5-(3,5-difluorophenyl)-4,5-dihydro-1H-pyrazole-1-carbonyl)azetidin-3-ylidene)methyl)benzo[d]oxazol-2(3H)-one] | 1 to 1000
O=C(N1CC(=Cc2ccc(F)cc2Cl)C1)N1N=CC[C@H]1c1cc(F)cc(F)c1 [Compound 312, (S)-(3-(2-chloro-4-fluorobenzylidene)azetidin-1-yl)(5-(3,5-difluorophenyl)-4,5-dihydro-1H-pyrazol-1-yl)methanone] | 1 to 1000
O=C(N1CC(=Cc2ccc(Cl)cc2F)C1)N1N=CC[C@H]1c1cc(F)cc(F)c1 [Compound 313] | 1 to 1000
O=C(N1CC(=Cc2ccc(Cl)cc2Cl)C1)N1N=CC[C@H]1c1cc(F)cc(F)c1 [Compound 314, (S)-(3-(2,4-dichlorobenzylidene)azetidin-1-yl)(5-(3,5-difluorophenyl)-4,5-dihydro-1H-pyrazol-1-yl)methanone] | 1 to 1000

SMILES | EC50 [nM]
O=C(N1CC(=Cc2cnc3cn[nH]c3c2)C1)N1N=CC[C@H]1c1cc(F)cc(F)c1 [Compound 315, (S)-(3-((1H-pyrazolo[4,3-b]pyridin-6-yl)methylene)azetidin-1-yl)(5-(3,5-difluorophenyl)-4,5-dihydro-1H-pyrazol-1-yl)methanone] | 1 to 1000
O=C(N1CC(=Cc2ccc(Cl)nc2Cl)C1)N1N=CC[C@H]1c1cc(F)cc(F)c1 [Compound 316, (S)-(3-((2,6-dichloropyridin-3-yl)methylene)azetidin-1-yl)(5-(3,5-difluorophenyl)-4,5-dihydro-1H-pyrazol-1-yl)methanone] | 1 to 1000
CNc1cccc(C=C2CN(C(=O)N3N=CC[C@H]3c3cc(F)cc(F)c3)C2)c1 [Compound 317, (S)-(5-(3,5-difluorophenyl)-4,5-dihydro-1H-pyrazol-1-yl)(3-(3-(methylamino)benzylidene)azetidin-1-yl)methanone] | 1 to 1000
O=C(N1CC(=Cc2ccc3oncc3c2)C1)N1N=CC[C@H]1c1cc(F)cc(F)c1 [Compound 318, (S)-(3-(benzo[d]isoxazol-5-ylmethylene)azetidin-1-yl)(5-(3,5-difluorophenyl)-4,5-dihydro-1H-pyrazol-1-yl)methanone] | 1 to 1000
N#Cc1ccc(F)c(C=C2CN(C(=O)N3N=CC[C@H]3c3cc(F)cc(F)c3)C2)c1 [Compound 319, (S)-3-((1-(5-(3,5-difluorophenyl)-4,5-dihydro-1H-pyrazole-1-carbonyl)azetidin-3-ylidene)methyl)-4-fluorobenzonitrile] | 1 to 1000
NC(=O)c1ccc(F)cc1C=C1CN(C(=O)N2N=CC[C@H]2c2cc(F)cc(F)c2)C1 [Compound 320, (S)-2-((1-(5-(3,5-difluorophenyl)-4,5-dihydro-1H-pyrazole-1-carbonyl)azetidin-3-ylidene)methyl)-4-fluorobenzamide] | 1 to 1000
N#Cc1cc(F)ccc1C=C1CN(C(=O)N2N=CC[C@H]2c2cc(F)cc(F)c2)C1 [Compound 321, (S)-2-((1-(5-(3,5-difluorophenyl)-4,5-dihydro-1H-pyrazole-1-carbonyl)azetidin-3-ylidene)methyl)-5-fluorobenzonitrile] | 1 to 1000
O=C(N1CC(=Cc2cc3[nH]nc(F)c3cc2F)C1)N1N=CC[C@H]1c1cncc(F)c1 [Compound 322, (S)-(3-((3,5-difluoro-1H-indazol-6-yl)methylene)azetidin-1-yl)(5-(5-fluoropyridin-3-yl)-4,5-dihydro-1H-pyrazol-1-yl)methanone] | 1 to 1000
N#Cc1ccc(C=C2CN(C(=O)N3N=CC[C@H]3c3cc(F)cc(F)c3)C2)c(F)n1 [Compound 323, (S)-5-((1-(5-(3,5-difluorophenyl)-4,5-dihydro-1H-pyrazole-1-carbonyl)azetidin-3-ylidene)methyl)-6-fluoropicolinonitrile] | 1 to 1000
N#Cc1ccc(C=C2CN(C(=O)N3N=CC[C@H]3c3cncc(F)c3)C2)c(F)n1 [Compound 324, (S)-6-fluoro-5-((1-(5-(5-fluoropyridin-3-yl)-4,5-dihydro-1H-pyrazole-1-carbonyl)azetidin-3-ylidene)methyl)picolinonitrile] | 1 to 1000
O=C(Nc1nc(N2CCN(C(=O)N3N=CC[C@H]3c3cc(F)cc(F)c3)CC2)ncc1F)C1CCCC1 [Compound 325, (S)—N-(2-(4-(5-(3,5-difluorophenyl)-4,5-dihydro-1H-pyrazole-1-carbonyl)piperazin-1-yl)-5-fluoropyrimidin-4-yl)cyclopentanecarboxamide] | 1 to 1000
O=C(N1CC(=Cc2cc(NC3CC3)ncc2F)C1)N1N=CC[C@H]1c1cc(F)cc(F)c1 [Compound 326, (S)-(3-((2-(cyclopropylamino)-5-fluoropyridin-4-yl)methylene)azetidin-1-yl)(5-(3,5-difluorophenyl)-4,5-dihydro-1H-pyrazol-1-yl)methanone] | 1 to 1000
O=C(N1CC(=Cc2cnc3c(F)n[nH]c3c2)C1)N1N=CC[C@H]1c1cc(F)cc(F)c1 [Compound 327] | 1 to 1000
O=C(Nc1nc(N2CCN(C(=O)N3N=CC[C@H]3c3cc(F)cc(F)c3)CC2)ncc1F)C1CCC1 [Compound 328, (S)—N-(2-(4-(5-(3,5-difluorophenyl)-4,5-dihydro-1H-pyrazole-1-carbonyl)piperazin-1-yl)-5-fluoropyrimidin-4-yl)cyclobutanecarboxamide] | 1 to 1000
O=C(N1CC(=Cc2cc(F)ncc2F)C1)N1N=CC[C@H]1c1cc(F)cc(F)c1 [Compound 329] | 1 to 1000
N#Cc1cc(Cl)nc(O[C@H]2CCN(C(=O)N3N=CC[C@H]3c3cc(F)cc(F)c3)C2)c1 [Compound 330, 2-chloro-6-(((S)-1-((S)-5-(3,5-difluorophenyl)-4,5-dihydro-1H-pyrazole-1-carbonyl)pyrrolidin-3-yl)oxy)isonicotinonitrile] | 1 to 1000
NC(=O)c1cc(Cl)nc(O[C@H]2CCN(C(=O)N3N=CC[C@H]3c3cc(F)cc(F)c3)C2)c1 [Compound 331, 2-chloro-6-(((S)-1-((S)-5-(3,5-difluorophenyl)-4,5-dihydro-1H-pyrazole-1-carbonyl)pyrrolidin-3-yl)oxy)isonicotinamide] | 1 to 1000
